pIC50: −log10 of the molar value.
Target: T1, purified rabbit lung ACE (Oryctolagus cuniculus, UniProt P12822)
T1 construct: The rabbit lung ACE (Sigma A6778) was reconstituted to a concentration of 1 unit/3 ml water; purchased Sigma A6778; host or cells: rabbit lung tissue
T1 sequence (P12822 34-1310): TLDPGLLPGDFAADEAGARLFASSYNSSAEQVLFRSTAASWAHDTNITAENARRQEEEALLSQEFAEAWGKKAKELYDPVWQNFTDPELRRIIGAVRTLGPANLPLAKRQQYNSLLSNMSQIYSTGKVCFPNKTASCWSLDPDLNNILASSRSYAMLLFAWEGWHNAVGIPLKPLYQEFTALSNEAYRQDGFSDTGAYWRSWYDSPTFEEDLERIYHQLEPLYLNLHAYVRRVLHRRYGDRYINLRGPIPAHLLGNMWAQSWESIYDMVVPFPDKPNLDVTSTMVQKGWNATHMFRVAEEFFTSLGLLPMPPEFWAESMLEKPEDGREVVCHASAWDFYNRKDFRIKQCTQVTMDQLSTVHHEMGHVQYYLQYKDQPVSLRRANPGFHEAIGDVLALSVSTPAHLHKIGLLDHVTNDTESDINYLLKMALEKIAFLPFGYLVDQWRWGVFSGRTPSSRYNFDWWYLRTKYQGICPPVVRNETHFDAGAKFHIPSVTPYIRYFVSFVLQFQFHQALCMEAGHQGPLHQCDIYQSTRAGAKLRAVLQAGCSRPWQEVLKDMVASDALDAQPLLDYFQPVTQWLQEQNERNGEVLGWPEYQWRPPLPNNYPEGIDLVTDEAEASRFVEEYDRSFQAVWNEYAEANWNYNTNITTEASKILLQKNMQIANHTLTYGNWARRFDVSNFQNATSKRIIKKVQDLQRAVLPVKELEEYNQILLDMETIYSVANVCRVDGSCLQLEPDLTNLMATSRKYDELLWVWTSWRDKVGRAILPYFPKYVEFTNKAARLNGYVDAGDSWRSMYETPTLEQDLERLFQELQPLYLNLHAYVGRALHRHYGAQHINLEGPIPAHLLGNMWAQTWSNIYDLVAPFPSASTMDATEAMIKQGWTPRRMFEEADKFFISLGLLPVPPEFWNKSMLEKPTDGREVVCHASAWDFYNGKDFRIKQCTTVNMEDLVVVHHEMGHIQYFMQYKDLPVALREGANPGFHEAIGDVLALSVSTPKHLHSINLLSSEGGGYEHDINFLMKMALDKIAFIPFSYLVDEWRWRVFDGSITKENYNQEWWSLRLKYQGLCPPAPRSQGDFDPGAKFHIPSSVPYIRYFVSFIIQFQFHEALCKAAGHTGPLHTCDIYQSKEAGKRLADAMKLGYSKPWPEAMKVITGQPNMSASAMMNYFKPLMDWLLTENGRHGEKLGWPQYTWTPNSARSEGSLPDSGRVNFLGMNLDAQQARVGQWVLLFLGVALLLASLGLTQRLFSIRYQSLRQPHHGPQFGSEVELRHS
Test: In vitro ACE activity colorimetric assay (Fujirebio ACE color kit)
Type: biochemical
Conditions: Re-complexes; purified rabbit lung ACE
Experimental: ACE inhibition was evaluated in vitro against rabbit lung ACE using a colorimetric assay.
A range of concentrations of each compound was examined for the ability to inhibit ACE cleavage of p-hydroxybenzoyl-glycine L-histidyl-L-leucine using a commercially available in vitro biochemical assay according to manufacturer's specifications (Fujirebio). The source of ACE enzyme chosen for the analysis was purified rabbit lung ACE (Sigrna) at 3.3 mU/sample. Lisinopril was included in each experiment as a positive control.
Angiotensin converting enzyme (ACE) activity was determined using the ACE color kit (Fujirebio) according to the manufacturers instructions. ACE acts upon p-hydroxybenzoyl-glycyl-L-histidyl-L-leucine to produce p-hydroxybenzoyl-glycine, which is converted to p-hydroxybenzoic acid by hippuricase. Quinoneimine dye is produced by oxidation and condensation of the p-hydroxybenzoic acid and 4-aminoantipyrine using sodium metaperiodate. The concentration of quinoneimine dye is quantitatively measured at its absorbance maximum of 505 nm. This assay was designed to compare the tissue and plasma specificity of rhenium-labeled ACE inhibitors in an ACE colorimetric assay.
Preparation of reagents: The ACE color kit was purchased from Fujirebio and the assay was conducted according to the manufacturer's instructions: reconstitute substrate with 5.6 ml of buffer solution, reconstitute blank with 5.6 ml of buffer solution for blank, reconstitute developer with 15.5 ml of stopper solution. The rabbit lung ACE (Sigma A6778) was reconstituted to a concentration of 1 unit/3 ml water.
Substrate or blank solution (125 μL) was then added and incubated at 37° C. for 20 min. The developer solution was added and incubated 37° C. for 3 min. The activity of the test compounds was determined by measuring the absorbance at 505 nm on a spectrophotometer. The optimal amount of serum ACE (25 μL) and tissue ACE (3.3 mUnits) was used to determine the specificity of the rhenium-labled ACE inhibitors. Test compounds, including lisinopril and captopril, were prepared (50 μM stock) and serially diluted 10-fold for final concentrations ranging from 1 μM to 0.1 nM (10 μL/assay tube). The assay was conducted as described above.
In vitro ACE activity assay. The ability of test compounds to inhibit ACE activity was determined using the ACEcolor kit from Fujirebio, Inc. according to the manufacturer's instructions. Purified rabbit lung ACE. (3.3 mUnits, Sigrna Chemicals) was incubated for 20 min with the test compound at concentrations of 1 μM to 0.1 nM in a solution of substrate at 37° C. Developer solution was added and the samples were incubated for an additional 5 minutes at 37° C. before reading at 505 nm in a spectrophotometer.

| SMILES | pIC50 |
| --- | --- |
| NCCCC[C@H](N[C@@H](CCc1ccccc1)C(=O)O)C(=O)N1CCC[C@H]1C(=O)O [Lisinopril, reference compound] | 8.40 |

Same assay, conditions: free D(Cx)L ligands; rabbit lung ACE 3.3 mU/sample

| SMILES | pIC50 |
| --- | --- |
| O=C(CCCN(Cc1ccccn1)Cc1ccccn1)NCCCCC(NC(CCc1ccccc1)C(=O)O)C(=O)N1CCCC1C(=O)O (stereo not drawn) [D(C4)L] | 7.08 |
| O=C(CCCCN(Cc1ccccn1)Cc1ccccn1)NCCCCC(NC(CCc1ccccc1)C(=O)O)C(=O)N1CCCC1C(=O)O (stereo not drawn) [D(C5)L] | 7.37 |
| NCCCC[C@H](N[C@@H](CCc1ccccc1)C(=O)O)C(=O)N1CCC[C@H]1C(=O)O [Lisinopril, reference compound] | 8.60 |

Further lines, results first:

| pIC50 | SMILES |
| --- | --- |
| 7.37 | O=C(CCCCCN(Cc1ccccn1)Cc1ccccn1)NCCCCC(NC(CCc1ccccc1)C(=O)O)C(=O)N1CCCC1C(=O)O (stereo not drawn) [D(C6)L] |
| 7.71 | O=C(CCCCCCCN(Cc1ccccn1)Cc1ccccn1)NCCCCC(NC(CCc1ccccc1)C(=O)O)C(=O)N1CCCC1C(=O)O (stereo not drawn) [D(C8)L] |

Source: patent US20080213172A1, “RADIOIMAGING MOIETIES COUPLED TO PEPTIDEASE-BINDING MOIETIES FOR IMAGING TISSUES AND ORGANS THAT EXPRESS PEPTIDASES” (Molecular Insight Pharmaceuticals, Inc., priority 2006, published 2008)
